From patent publication EP3120851A1, “4-AMINO-6-(2,6-DICHLOROPHENYL)-8-METHYL-2-(PHENYLAMINO)-PYRIDO[2,3-D]PYRIMIDIN-7(8H)-ONE FOR TREATMENT OF SOLID CANCERS” (Pangaea Biotech S.L., priority 2015, dated 2017)

Key:
Experiment in all cases: MTT proliferation assay, single agent
Assay type in all cases: cell-based
A431 = conditions: Homo sapiens, A-431, SCC, 72 h, mean of several independent experiments
Method: (§1) The compound of formula (1) was tested using a Thiazolyl Blue Tetrazolium Bromide (MTT) proliferation assay in a panel of tumor cell lines of different origins.
(§2) All culture materials were obtained from Biological Industries (Kibbutz Beit Haemek, Israel) or Invitrogen (Paisley, Scotland, United Kingdom). The non-tumor cell lines HF and HACAT were provided by Vall d'Hebrón Hospital and GmbH, respectively. The PC9 naïve cell line was provided by Mayumi Ono and, the H3122, HCC78 and 11-18 by Daniel Costa. The PC9-GR1, PC9-GR2, PC9-GR3, PC9-GR4, PC9-GR5 and PC9-ER cell lines were derived in house by exposing the parental PC9 cell line to increasing concentrations of erlotinib (ER) or gefitinib (GR). The rest of the cell lines in which compound (1) was tested were purchased from ATCC (H23, H1975, H2228, A549, H460, Calu-6, H1650, SK-MES-1, EBC1, SNU1, AGS, N87, PC3, BxPC3, DLD1, HT29, SW48, SCC9,FaDu, AU565, Gingival, Prostate, SU-DHL-1 and A431). All cell lines were maintained in RPMI medium supplemented with 10% FBS, 50 µg/mL penicillin-streptomycin and 2 mM L-Glutamine. All cells were grown in a humidified atmosphere with 5% CO2 at 37°C.
(§3) Cell viability in response to single agent treatment was assessed by the Thiazolyl Blue Tetrazolium Bromide (MTT) (Sigma, St Louis, MO) assay. Cells from each cell line were seeded at 2000 to 10000 per well in 96-well plates. […] After treatment, cells were incubated with medium containing MTT (0.75 mg/mL in medium) for 1-2 h at 37°C. Culture medium with MTT was removed and formazan crystals reabsorbed in 100 µL DMSO (Sigma, St. Louis, MO). Cell viability was determined by measuring the absorbance at 492 nm, using a microplate reader (BioWhittaker, Walkersville, MD).
(§4) The IC50s shown are the mean of several independent experiments. Standard errors are also listed Table 2. SCC means squamous cell carcinoma, ADC means adenocarcinoma, GBM means glioblastoma.

CD74-ROS1 (G2032) = conditions: Lung ADC, ROS1 translocated, 72 h, mean of several independent experiments
Method: as §1, §2, §3, §4

CD74-ROS1 (wt) = conditions: Lung ADC, ROS1 translocated, 72 h, mean of several independent experiments
Method: as §1, §2, §3, §4

Calu6 = conditions: Homo sapiens, Calu-6, Lung ADC, KRAS, 72 h, mean of several independent experiments
Method: as §1, §2, §3, §4

DLD1 = conditions: Homo sapiens, DLD-1, Colon ADC, KRAS, 72 h, mean of several independent experiments
Method: as §1, §2, §3, §4

FaDu = conditions: Homo sapiens, SCC Head&Neck, DDR2 wt, 72 h, mean of several independent experiments
Method: as §1, §2, §3, §4

H1568 = conditions: NCI-H1568, Lung ADC, CD74-NRG1, 72 h, mean of several independent experiments
Method: as §1, §2, §3, §4

H2228 = conditions: Homo sapiens, NCI-H2228, Lung ADC, ALK-EML4 (v3), 72 h, mean of several independent experiments
Method: as §1, §2, §3, §4

H23 = conditions: Homo sapiens, NCI-H23, Lung ADC, KRAS, 72 h, mean of several independent experiments
Method: as §1, §2, §3, §4

H322 = conditions: NCI-H322, Lung BAC, CD74-NRG1, 72 h, mean of several independent experiments
Method: as §1, §2, §3, §4

H460 = conditions: Homo sapiens, NCI-H460, Lung ADC, KRAS, 72 h, mean of several independent experiments
Method: as §1, §2, §3, §4

H520 = conditions: Homo sapiens, NCI-H520, SCC Lung, DDR2 wt, 72 h, mean of several independent experiments
Method: as §1, §2, §3, §4

HCC366 = conditions: SCC Lung, DDR2 mutated, 72 h, mean of several independent experiments
Method: as §1, §2, §3, §4

HT29 = conditions: Homo sapiens, HT-29, Colon ADC, BRAF V600E, 72 h, mean of several independent experiments
Method: as §1, §2, §3, §4

L239R+T654M = conditions: SCC Lung, DDR2 mutated, 72 h, mean of several independent experiments
Method: as §1, §2, §3, §4

L239R = conditions: SCC Lung, DDR2 mutated, 72 h, mean of several independent experiments
Method: as §1, §2, §3, §4

PC3 = conditions: Homo sapiens, PC-3, Prostate ADC, DDR2 wt, 72 h, no standard error printed
Method: as §1, §2, §3, §4

PC9-ER = conditions: Homo sapiens, PC-9/ER, Lung ADC, EGFR ex19, 72 h, mean of several independent experiments
Method: as §1, §2, §3, §4

PC9-GR1 = conditions: Lung ADC, EGFR ex19, 72 h, mean of several independent experiments
Method: as §1, §2, §3, §4

PC9-GR3 = conditions: Lung ADC, EGFR ex19, 72 h, mean of several independent experiments
Method: as §1, §2, §3, §4

PC9-GR4 = conditions: Lung ADC, EGFR ex19, 72 h, mean of several independent experiments
Method: as §1, §2, §3, §4

PC9 = conditions: Homo sapiens, PC-9, Lung ADC, EGFR ex19, 72 h, mean of several independent experiments
Method: as §1, §2, §3, §4

SCC9 = conditions: Homo sapiens, SCC-9, SCC Head&Neck, DDR2 wt, 72 h, mean of several independent experiments
Method: as §1, §2, §3, §4

SK-MES-1 = conditions: Homo sapiens, SCC Lung, DDR2 wt, 72 h, mean of several independent experiments
Method: as §1, §2, §3, §4

SW48 = conditions: Homo sapiens, Colon ADC, EGFR ex18, 72 h, mean of several independent experiments
Method: as §1, §2, §3, §4

WM793 = conditions: Homo sapiens, Melanoma, BRAF V600E, 72 h, mean of several independent experiments
Method: as §1, §2, §3, §4

- IC50 (A431): 1.35 µM
- IC50 (Calu6): 0.72 µM
- IC50 (DLD1): 1 µM
- IC50 (H1568): 2.43 µM
- IC50 (H2228): 1.36 µM
- IC50 (H322): 4.35 µM
- IC50 (H460): 1 µM
- IC50 (H520): 0.35 µM
- IC50 (HCC366): 0.83 µM
- IC50 (HT29): 2 µM
- IC50 (PC3): 3.4 µM
- IC50 (PC9-ER): 1.18 µM
- IC50 (PC9-GR1): 1.45 µM
- IC50 (PC9-GR3): 0.88 µM
- IC50 (PC9-GR4): 2.1 µM
- IC50 (PC9): 2.85 µM
- IC50 (SK-MES-1): 0.57 µM
- IC50 (SW48): 0.75 µM
Structure (SMILES): Cn1c(=O)c(-c2c(Cl)cccc2Cl)cc2c(N)nc(Nc3ccccc3)nc21 [Compound (1), 4-amino-6-(2,6-dichlorophenyl)-8-methyl-2-(phenylamino)-pyrido[2,3-d]pyrimidin-7(8H)-one]
- IC50 (CD74-ROS1 (G2032)): 2 µM
- IC50 (CD74-ROS1 (wt)): 1.9 µM
- IC50 (FaDu): 4.85 µM
- IC50 (H23): 1.57 µM
- IC50 (L239R+T654M): 0.6 µM
- IC50 (L239R): 0.75 µM
- IC50 (SCC9): 4.35 µM
- IC50 (WM793): 1.6 µM
